ChEMBL document CHEMBL6074627 (RSC Med Chem, 2024)
The source made the active and inactive calls. The calls are words filed in the database; no cut-off is given here.

Tests used:
[1] = biological target: Replicase polyprotein 1ab (Severe acute respiratory syndrome coronavirus 2, UniProt P0DTD1); test: Inhibition of N-terminal 8His and SUMO tagged SARS-CoV-2 nsp14 N7-methyltransferase activity extracted from Escherichia coli using S-Adenosyl-L-methionine as substrate incubated for 30 mins by mass spectrometry
[2] = biological target: mRNA cap guanine-N(7) methyltransferase (Homo sapiens) (UniProt O43148); test: Inhibition of human RNMT at 25 uM
Chain of mRNA cap guanine-N(7) methyltransferase (Homo sapiens) (O43148 whole entry): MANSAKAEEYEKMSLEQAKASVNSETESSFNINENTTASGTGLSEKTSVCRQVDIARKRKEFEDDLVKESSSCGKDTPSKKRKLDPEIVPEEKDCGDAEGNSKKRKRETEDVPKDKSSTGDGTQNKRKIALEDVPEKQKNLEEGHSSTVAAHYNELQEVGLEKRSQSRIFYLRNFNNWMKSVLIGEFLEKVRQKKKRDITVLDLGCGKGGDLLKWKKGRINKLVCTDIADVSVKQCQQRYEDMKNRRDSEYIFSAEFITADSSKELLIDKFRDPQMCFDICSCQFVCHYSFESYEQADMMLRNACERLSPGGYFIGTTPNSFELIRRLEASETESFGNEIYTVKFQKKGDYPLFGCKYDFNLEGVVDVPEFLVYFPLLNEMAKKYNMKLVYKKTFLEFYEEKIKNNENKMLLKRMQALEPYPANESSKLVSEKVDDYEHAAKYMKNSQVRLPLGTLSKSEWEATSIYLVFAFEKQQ

SARS-CoV-2 = test: Antiviral activity against SARS-CoV-2 hCoV-19/Czech Republic/NRL_6632_2/2020 infected in African green monkey Vero E6 cells assessed as reduction in viral growth […] by two-fold serial dilution assay; type: functional, organism-based; conditions: Severe acute respiratory syndrome coronavirus 2

Row | Structure (SMILES) | IC50 [1] | inhibition [2] | Activity (SARS-CoV-2)
1 | Nc1ncnc2c1ncn2[C@@H]1O[C@H](C(=O)Nc2ccc(-c3ccsc3)cc2)[C@@H](O)[C@H]1O | Not_active |  | 
2 | Cc1cc(=O)[nH]c2cc(NC(=O)[C@H]3O[C@@H](n4cnc5c(N)ncnc54)[C@H](O)[C@@H]3O)ccc12 |  | inactive | inactive
3 | COc1cccc(NC(=O)[C@H]2O[C@@H](n3cnc4c(N)ncnc43)[C@H](O)[C@@H]2O)c1 | Not_active |  | 
4 | COC(=O)c1ccc(C(=O)NC[C@H]2O[C@@H](n3cnc4c(N)ncnc43)[C@H](O)[C@@H]2O)cc1 | Not_active |  | 
5 | Nc1ncnc2c1ncn2[C@@H]1O[C@H](C(=O)Nc2ccc(-c3cn[nH]c3)cc2)[C@@H](O)[C@H]1O | Not_active |  | 
6 | Cc1cc(=O)[nH]c2cc(NC(=O)[C@H]3O[C@@H](n4cc(C#Cc5cncnc5)c5c(N)ncnc54)[C@H](O)[C@@H]3O)ccc12 |  | inactive | inactive
7 | Nc1ncnc2c1ncn2[C@@H]1O[C@H](CNC(=O)c2ccc3c(c2)OCCO3)[C@@H](O)[C@H]1O | Not_active |  | 
8 | Cc1cc(=O)oc2cc(NC(=O)[C@H]3O[C@@H](n4cc(C#Cc5cncnc5)c5c(N)ncnc54)[C@H](O)[C@@H]3O)ccc12 |  | inactive | inactive
9 | Cc1cc(=O)[nH]c2cc(N(C)C(=O)[C@H]3O[C@@H](n4cc(C#Cc5cncnc5)c5c(N)ncnc54)[C@H](O)[C@@H]3O)ccc12 |  | inactive | inactive
10 | NC(=O)c1ccc(NC(=O)[C@H]2O[C@@H](n3cnc4c(N)ncnc43)[C@H](O)[C@@H]2O)cc1 | Not_active |  | 
11 | Nc1ncnc2c1ncn2[C@@H]1O[C@H](C(=O)Nc2ccc(-c3ccoc3)cc2)[C@@H](O)[C@H]1O | Not_active |  | 
12 | Cc1ccc(NC(=O)[C@H]2O[C@@H](n3cnc4c(N)ncnc43)[C@H](O)[C@@H]2O)cc1O | Not_active |  | 
13 | COC(=O)c1cc(NC(=O)[C@H]2O[C@@H](n3cnc4c(N)ncnc43)[C@H](O)[C@@H]2O)ccc1F | Not_active |  | 
14 | Cc1noc(C)c1-c1ccc(NC(=O)[C@H]2O[C@@H](n3cnc4c(N)ncnc43)[C@H](O)[C@@H]2O)cc1 | Not_active |  | 
15 | Cc1cc(=O)oc2cc(NC(=O)[C@H]3O[C@@H](n4cnc5c(N)ncnc54)[C@H](O)[C@@H]3O)ccc12 |  | inactive | inactive
